system: Phakopsora pachyrhizi; experiment: Test A: preventive spray on soybean seedlings, Asian soybean rust, visual disease rating; type: in vivo; details: rate 10 ppm
From the text: General protocol for preparing test suspensions for Test A: the test compounds were first dissolved in acetone in an amount equal to 3% of the final volume and then suspended at the desired concentration (in ppm) in acetone and purified water (50/50 mix by volume) containing 250 ppm of the surfactant PEG400 (polyhydric alcohol esters). The resulting test suspensions were then used in Test A.
The test solution was sprayed to the point of run-off on soybean seedlings. The following day the seedlings were inoculated with a spore suspension of Phakopsora pachyrhizi (the causal agent of Asian soybean rust) and incubated in a saturated atmosphere at 22° C. for 24 h and then moved to a growth chamber at 22° C. for 8 days, after which time visual disease ratings were made.
A rating of 100 indicates 100% disease control and a rating of 0 indicates no disease control (relative to the controls).

`C=CCON(CCCC)C(=O)c1cnn(Cc2ccc(O/C=C(\OCC)C(F)(F)F)cc2)c1` [compound 43] was tested. Which “Test A rating (100 = 100% disease control, 0 = no disease control relative to the controls)” value did it give?
Its value is 87%.

Which “Test A rating (100 = 100% disease control, 0 = no disease control relative to the controls)” value does the source give for `CCO/C(=C\Oc1ccc(Cn2cc(COCC3CC3)cn2)cc1)C(F)(F)F` [compound 64] here?
The value was 100%.

`CCO/C(=C\Oc1ccc(Cn2cccc(C(=O)N(C)OCC3CC3)c2=O)cc1)C(F)(F)F` [compound 102] was tested. Which “Test A rating (100 = 100% disease control, 0 = no disease control relative to the controls)” value did it give?
The value was 99%.

Which “Test A rating (100 = 100% disease control, 0 = no disease control relative to the controls)” value does the source give for `CCO/C(=C\Oc1ccc(Cn2cc(COC(=O)C3CC3)cn2)c(F)c1F)C(F)(F)F` [Compound 71] here?
The value was 100%.

Which “Test A rating (100 = 100% disease control, 0 = no disease control relative to the controls)” value does the source give for `CCO/C(=C\Oc1ccc(Cc2cccc(C(=O)NOCC(F)(F)F)n2)cc1)C(F)(F)F` [Compound 127, 2-[[4-1[[(1Z)-2-ethoxy-3,3,3-trifluoro-1-propen-1-yl]oxy]phenyl]methyl]-N-(2,2,2-trifluoroethoxy)-6-pyridinecarboxamide] here?
The value was 99%.

`CCO/C(=C\Oc1ccc(Cn2cc(COC(=O)CC#N)cn2)cc1)C(F)(F)F` [compound 24] was tested. Which “Test A rating (100 = 100% disease control, 0 = no disease control relative to the controls)” value did it give?
The value was 100%.

Which “Test A rating (100 = 100% disease control, 0 = no disease control relative to the controls)” value does the source give for `CCO/C(=C\Oc1ccc(Cn2cc(COC(=O)C(CC)CC)cn2)cc1)C(F)(F)F` [compound 36] here?
Its value is 100%.

With `CCO/C(=C\Oc1ccc(Cn2cc(COC(C)=O)nn2)cc1)C(F)(F)F` [Compound 37] as the compound, how does the “Test A rating (100 = 100% disease control, 0 = no disease control relative to the controls)” value read?
Its value is 100%.

With `CCO/C(=C\Oc1ccc(Cn2cc(CC(=O)OCC3CC3)cn2)cc1)C(F)(F)F` [compound 13] as the compound, how does the “Test A rating (100 = 100% disease control, 0 = no disease control relative to the controls)” value read?
Its value is 96%.

For `C=CCONC(=O)c1cnn(CCc2ccc(O/C=C(\OCC)C(F)(F)F)cc2)c1` [compound 62], which “Test A rating (100 = 100% disease control, 0 = no disease control relative to the controls)” value is on record?
The value was 100%.

How did the “Test A rating (100 = 100% disease control, 0 = no disease control relative to the controls)” value turn out when `CCO/C(=C\Oc1ccc(Cn2cc(C(=O)NOCC#N)cn2)c(F)c1)C(F)(F)F` [Compound 81] was run?
Its value is 100%.

Which “Test A rating (100 = 100% disease control, 0 = no disease control relative to the controls)” value does the source give for `C#CCONC(=O)c1cccc(Cc2ccc(O/C=C(\OCC)C(F)(F)F)cc2)n1` [Compound 125, 2-[[4-1[[(1Z)-2-ethoxy-3,3,3-trifluoro-1-propen-1-yl]oxy]phenyl]methyl]-N-(2-propyn-1-yloxy)-6-pyridinecarboxamide] here?
Its value is 100%.

How did the “Test A rating (100 = 100% disease control, 0 = no disease control relative to the controls)” value turn out when `CCOC(=O)OCc1cnn(Cc2ccc(O/C=C(\OCC)C(F)(F)F)cc2)c1` [compound 53] was run?
Its value is 100%.

With `CCO/C(=C\Oc1ccc(Cn2cc(COC(=O)C(=O)OC)cn2)cc1)C(F)(F)F` [Compound 48, 1-[[1-[[4-[[(1Z)-2-ethoxy-3,3,3-trifluoro-1-propen-1-yl]oxy]phenyl]methyl]-1H-pyrazol-4-yl]methyl]2-methyl ethanedioate] as the compound, how does the “Test A rating (100 = 100% disease control, 0 = no disease control relative to the controls)” value read?
The value was 100%.

With `CCO/C(=C\Oc1ccc(Cn2cc(COC(=O)C(Cl)Cl)cn2)cc1)C(F)(F)F` [compound 16] as the compound, how does the “Test A rating (100 = 100% disease control, 0 = no disease control relative to the controls)” value read?
Its value is 100%.

Which “Test A rating (100 = 100% disease control, 0 = no disease control relative to the controls)” value does the source give for `C#CCOCc1cnn(Cc2ccc(O/C=C(\OCC)C(F)(F)F)cc2)c1` [compound 65] here?
The value was 100%.

same assay, conditions: rate 10 ppm, read-out: Test A rating (100 = 100% disease control, 0 = no disease control relative to the controls)

With `CCO/C(=C\Oc1ccc(Cn2cc(C(=O)NOCC(F)(F)F)cn2)cc1)C(F)(F)F` [Compound 45, 1-[[4-[[(1Z)-2-ethoxy-3,3,3-trifluoro-1-propen-1-yl]oxy]phenyl]methyl]-N-(2,2,2-trifluoroethoxy)-1H-pyrazole-4-carboxamide] as the compound, how does the pest or weed control at 10 ppm read?
The pest or weed control at 10 ppm was 100%.

For `CCO/C(=C\Oc1ccc(Cn2cc(COC(=O)CC(C)C)cn2)cc1)C(F)(F)F` [Compound 27, [1-[[4-[[(1Z)-2-ethoxy-3,3,3-trifluoro-1-propen-1-yl]oxy]phenyl]methyl]-1H-pyrazol-4-yl]methyl 3-methylbutanoate], which pest or weed control at 10 ppm is on record?
The pest or weed control at 10 ppm was 100%.

How did the pest or weed control at 10 ppm turn out when `O=C(OCc1cnn(Cc2ccc(OCC3(C(F)(F)F)OCCO3)cc2)c1)C1CCCC1` [Compound 4, [1-[[4-[[2-(trifluoromethyl)-1,3-dioxolan-2-yl]methoxy]phenyl]methyl]-1H-pyrazol-4-yl]methyl cyclopentanecarboxylate] was run?
The pest or weed control at 10 ppm was 90%.

How did the pest or weed control at 10 ppm turn out when `CCO/C(=C\Oc1ccc(Cn2cc(COC(=O)CC(F)(F)F)cn2)cc1)C(F)(F)F` [Compound 35, [1-[[4-[[(1Z)-2-ethoxy-3,3,3-trifluoro-1-propen-1-yl]oxy]phenyl]methyl]-1H-pyrazol-4-yl]methyl 3,3,3-trifluoropropanoate] was run?
The pest or weed control at 10 ppm was 100%.

How did the pest or weed control at 10 ppm turn out when `CCO/C(=C\Oc1ccc(Cn2cc(COC(=O)CC)cn2)cc1)C(F)(F)F` [Compound 21, [1-[[4-[[(1Z)-2-ethoxy-3,3,3-trifluoro-1-propen-1-yl]oxy]phenyl]methyl]-1H-pyrazol-4-yl]methyl propanoate] was run?
Its pest or weed control at 10 ppm is 100%.

`C=CCO/N=C(/OCC)c1ccn(Cc2ccc(O/C=C(\OCC)C(F)(F)F)cc2)n1` [compound 110] was tested. Which pest or weed control at 10 ppm did it give?
Its pest or weed control at 10 ppm is 99%.

same assay, conditions: rate 50 ppm

With `CCOC(=O)C(=O)OCc1cnn(Cc2ccc(OCC3(C(F)(F)F)OCCO3)cc2)c1` [Compound 91] as the compound, how does the “Test A rating (100 = 100% disease control, 0 = no disease control relative to the controls)” value read?
The value was 100%.

Which “Test A rating (100 = 100% disease control, 0 = no disease control relative to the controls)” value does the source give for `C#CCOCc1cnn(Cc2ccc(OCC3(C(F)(F)F)OCCO3)cc2)c1` [Compound 94] here?
The value was 100%.

Source: patent US20250089717A1, “FUNGICIDAL HALOMETHYL KETONES, HYDRATES AND ENOL ETHERS AND THEIR MIXTURES” (FMC CORPORATION, priority 2023, published 2025)
